Laboratory results from patent EP0100051A1, “New derivatives of 1-alkylamine-(4(p-alkyloxy-benzamide)phenoxy)-2-propanol, having beta-sympatholytic activity, their salts, and production processes thereof” (A. Menarini S.a.S., priority 1982, dated 1984).

How the values were obtained:
[1] = test system: β -chronotropic effects (cardiac frequency increase), β .-inotropic effects (systolic ejection velocity increase), and ,β2 effects (diastolic pressure lowering); assay: antagonism of the effects of isoprenaline in the anaesthetized and reserpenized rat after oral administration (in vivo); details: for inherent sympathicomimetic activity: cardiac frequency in the reserpenized animal at rest; for cardioselectivity: from the in vivo and in vitro results, β1 versus β2 effects of isoprenaline; for power gap between vivo and vitro: in vivo activity relative to in vitro activity
[2] = test system: β chronotropic effects (cavy right atrium), β1 inotropic effects (cavy ventricle) and 2 effects (cavy trachea) of the isoprenaline; assay: antagonism of the effects of isoprenaline on isolated tissues (in vitro); details: compared with the compounds of the invention
Excerpt: The beta-sympatholytic activity of the compounds under examination has been tested in vivo as antagonist to the β -chronotropic effects (cardiac frequency increase), β .-inotropic effects (systolic ejection velocity increase), and ,β2 effects (diastolic pressure lowering) of the isoprenaline upon the anaesthetized and reserpenized rat, after oral administration, and in vitro as antagonist to the β chronotropic effects (cavy right atrium), β1 inotropic effects (cavy ventricle) and 2 effects (cavy trachea) of the isoprenaline.

Row | SMILES | inherent sympathicomimetic activity [1] | cardioselectivity [1] | power gap between vivo and vitro [1] | beta-sympatholytic activity in vitro [2]
1 | CC(C)NCC(O)COc1ccc(NC(=O)c2ccc(Cl)cc2)cc1 (centres unmarked) [1 [4(-p--chlorobenzamide)phenoxy] -3-isopropylamine-2-propanol] | also present | also present | lack of a significant power gap between vivo and vitro | –
2 | CC(C)NCC(O)COc1cccc2ccccc12 (centres unmarked) [propranolol] | – | – | relevant decrease of the in vivo activity | more active in vitro
3 | CC(=O)Nc1ccc(OCC(O)CNC(C)C)cc1 (centres unmarked) [practolol] | also present | also present | lack of a significant power gap between vivo and vitro | –
4 | CC(C)NCC(O)COc1ccc(NC(=O)c2ccccc2)cc1 (centres unmarked) [1-(4-benzamidephenoxy)-3-isopropylamine-2-propanol] | also present | also present | lack of a significant power gap between vivo and vitro | –
